Laboratory results: US4719207A, “CNS active substituted azetidinone compounds” (Yamanouchi Pharmaceutical Co., Ltd., priority 1984, dated 1988)
Like-named read-outs stand apart in the source and are kept apart here.

Columns and labels:
[1] = system: mice; experiment: Reversal effect against pentobarbital-induced hypothermia (Experiment 1); type: in vivo; conditions: i.v., 10 minutes after pentobarbital (55 mg/kg i.p.), rectal temperature 30 minutes after test compound, dose required to reduce pentobarbital-hypothermia by 1.5° C.; for ED (1.5 degC): Mus musculus, iv, 0.5 h, read-out: Reversal effect against pentobarbitalhypothermia ED1.5° C
Experimental: The following experiments show the action on low body temperature induced by pentobarbital (Experiment 1), and on acute toxicity for typical compounds of the present invention.
Pentobarbital-induced hypothermia
Nine male mice weighing 18 to 22 g were used for each dosage of the test compounds. Mice were given intravenously various doses of test compounds 10 minutes after pentobarbital (55 mg/kg i.p.). Rectal temperature was measured before pentobarbital dosing and immediately before and 30 minutes after the test compounds. Effects of test compounds were evaluated as ED1.5° C., the dose required to reduce by 1.5° C. pentobarbital-hypothermia of control group of mice which received only pentobarbital and saline. The results are shown in Talbe 1.
(A) Reversal effect against pentobarbitalhypothermia ED1.5° C

[2] = Acute toxicity (i.v.); set-up: species or system mice; conditions: mouse, in vivo, iv
Experimental: That is, LD50 (i.v.) of the compound of the present invention was higher than 800 mg/kg.

Structure (SMILES): C[C@H]1C(=O)N[C@@H]1C(=O)N[C@@H](Cc1cn(C)cn1)C(=O)N1CCC[C@H]1C(N)=O [.tau.-Methyl-N^α --[(2S,3R)--3-methyl-4-oxo-2-azetidinyl-carbonyl]-L-histidyl-L-prolinamide]
- ED (1.5 degC) [1]: 0.02 mg/kg

Structure (SMILES): CS[C@H]1C(=O)N[C@@H]1C(=O)N[C@@H](Cc1c[nH]cn1)C(=O)N1CCC[C@H]1C(N)=O [N^α -[(2R,3R)-3-methylthio-4-oxo-2-azetidinylcarbonyl]-L-histidyl-L-prolinamide]
- ED (1.5 degC) [1]: 0.08 mg/kg

Structure (SMILES): [N-]=[N+]=N[C@H]1C(=O)N[C@@H]1C(=O)N[C@@H](Cc1c[nH]cn1)C(=O)N1CCC[C@H]1C(N)=O [N^α -[(2S,3R)-3-azido-4-oxo-2-azetidinylcarbonyl]-L-histidyl-L-prolinamide]
- ED (1.5 degC) [1]: < 0.01 mg/kg

Structure (SMILES): NC(=O)[C@@H]1CCCN1C(=O)[C@H](Cc1c[nH]cn1)NC(=O)[C@H]1NC(=O)[C@@H]1Cc1ccccc1 [N^α -[(2S,3R)-3-benzyl-4-oxo-2-azetidinylcarbonyl]-L-histidyl-L-prolinamide]
- ED (1.5 degC) [1]: 0.04 mg/kg

Structure (SMILES): CC(O)[C@H]1C(=O)N[C@@H]1C(=O)N[C@@H](Cc1c[nH]cn1)C(=O)N1CCC[C@H]1C(N)=O (stereo partly drawn) [N^α -[(2S,3S)-3-(1-hydroxyethyl)-4-oxo-2-azetidinylcarbonyl]-L-histidyl-L-prolinamide]
- ED (1.5 degC) [1]: 0.07 mg/kg

Structure (SMILES): NC(=O)[C@@H]1CCCN1C(=O)[C@H](Cc1c[nH]cn1)NC(=O)[C@@H]1CC(=O)N1CO [N^α -[(S)-1-hydroxymethyl-4-oxo-2-azetidinylcarbonyl]-L-histidyl-L-prolinamide]
- ED (1.5 degC) [1]: 0.04 mg/kg

Structure (SMILES): Cn1cnc(C[C@H](NC(=O)[C@H]2NC(=O)C2(C)C)C(=O)N2CCC[C@H]2C(N)=O)c1 [N^α -[(S)-3,3-dimethyl-4-oxo-2-azetidinylcarbonyl]-.tau.-methyl-L-histidyl-L-prolinamide]
- ED (1.5 degC) [1]: 0.01 mg/kg

Structure (SMILES): CC1(C)C(=O)N[C@@H]1C(=O)N[C@@H](Cc1c[nH]cn1)C(=O)N1CCC[C@H]1C(N)=O [N^α -[(S)-3,3-dimethyl-4-oxo-2-azetidinylcarbonyl]-L-histidyl-L-prolinamide]
- LD50 at 24 h [2]: > 800 mg/kg

Structure (SMILES): NC(=O)[C@@H]1CCCN1C(=O)[C@H](Cc1c[nH]cn1)NC(=O)[C@@H]1CCC(=O)N1 [TRH, L-pyroglutamyl-L-histidyl-L-prolinamide, reference compound]
- LD50 at 24 h ([2]; male mice, observed for 24 hours, read-out: LD50 (i.v.)): 751 mg/kg
- Reversal effect against pentobarbitalhypothermia ED1.5° C [1]: 0.1 mg/kg
